Data: patent publication US20230111310A1, “CARBOXYLIC ACID DERIVATIVE-SUBSTITUTED IMINO ARYL COMPOUND, PREPARATION METHOD THEREFOR, HERBICIDAL COMPOSITION AND USE THEREOF” (Qingdao Kingagroot Chemical Compound Co., Ltd., priority 2020, published 2023)

Legend:
Experiment in all cases: Weeding effect in post-emergence stage
Assay type in all cases: in vivo
[1] = tested on: Eleusine indica; conditions: for Weeding effect in post-emergence stage, Eleusine indica (level): fresh weight control rate level; for Weeding effect in post-emergence stage, Eleusine indica: level of fresh weight growth control rate
How it was run: (§1)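 Pot-grown greenhouse plants sprayed at 2–3 leaf stage, 2 weeks after sowing, with compound in acetone/Tween 80 plus methyl oleate emulsifiable concentrate (1.5 liter/ha) at 500–7.5 g/ha. Growth control rated 3 weeks after treatment; mean of three replicates.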

[2] = tested on: Alopecurus japonicus; conditions: for Weeding effect in post-emergence stage, Alopecurus japonicus (level): fresh weight control rate level; for Weeding effect in post-emergence stage, Alopecurus japonicus: level of fresh weight growth control rate
How it was run: as §1

[3] = tested on: Setaria viridis; conditions: for Weeding effect in post-emergence stage, Setaria viridis (level): fresh weight control rate level; for Weeding effect in post-emergence stage, Setaria viridis: level of fresh weight growth control rate
How it was run: as §1

[4] = tested on: Abutilon theophrasti; conditions: for Weeding effect in post-emergence stage, Abutilon theophrasti (level): fresh weight control rate level; for Weeding effect in post-emergence stage, Abutilon theophrasti: level of fresh weight growth control rate
How it was run: as §1

[5] = tested on: Digitaria sanguinalis; conditions: for Weeding effect in post-emergence stage, Digitaria sanguinalis (level): fresh weight control rate level; for Weeding effect in post-emergence stage, Digitaria sanguinalis: level of fresh weight growth control rate
How it was run: as §1

[6] = tested on: Echinochloa crusgalli; conditions: for Weeding effect in post-emergence stage, Echinochloa crusgalli (level): fresh weight control rate level; for Weeding effect in post-emergence stage, Echinochloa crusgalli: level of fresh weight growth control rate
How it was run: as §1

Compound	Weeding effect in post-emergence stage, Eleusine indica ([1]; Dose 15 g/ha)	Weeding effect in post-emergence stage, Alopecurus japonicus ([2]; Dose 15 g/ha)	Weeding effect in post-emergence stage, Setaria viridis ([3]; Dose 15 g/ha)	Weeding effect in post-emergence stage, Abutilon theophrasti ([4]; Dose 15 g/ha)	Weeding effect in post-emergence stage, Digitaria sanguinalis ([5]; Dose 15 g/ha)	Weeding effect in post-emergence stage, Echinochloa crusgalli ([6]; Dose 15 g/ha)	further results
CCOC(=O)CO/N=C/c1cccc(-n2c(=O)cc(C(F)(F)F)[nH]c2=O)c1 [Control compound F, reference compound]							Weeding effect in post-emergence stage, Eleusine indica (level) ([1]; Dose 60 g/ha): 1 (Level 1: growth control rate is greater than or equal to 5% and less than 20%); Weeding effect in post-emergence stage, Alopecurus japonicus (level) ([2]; Dose 60 g/ha): 0 (Level 0: growth control rate is less than 5%); Weeding effect in post-emergence stage, Setaria viridis (level) ([3]; Dose 60 g/ha): 1 (Level 1: growth control rate is greater than or equal to 5% and less than 20%); Weeding effect in post-emergence stage, Abutilon theophrasti (level) ([4]; Dose 60 g/ha): 2 (Level 2: growth control rate is greater than or equal to 20% and less than 40%); Weeding effect in post-emergence stage, Digitaria sanguinalis (level) ([5]; Dose 60 g/ha): 1 (Level 1: growth control rate is greater than or equal to 5% and less than 20%); Weeding effect in post-emergence stage, Echinochloa crusgalli (level) ([6]; Dose 60 g/ha): 0 (Level 0: growth control rate is less than 5%)
CCC(O/N=C/c1cc(-n2c(=O)cc(C(F)(F)F)n(C)c2=O)c(F)cc1Cl)C(=O)OC (stereo not drawn) [Compound 315]	5 (Level 5: growth control rate is above 85%)	5 (Level 5: growth control rate is above 85%)	5 (Level 5: growth control rate is above 85%)	5 (Level 5: growth control rate is above 85%)	5 (Level 5: growth control rate is above 85%)	5 (Level 5: growth control rate is above 85%)	
C=CCCOC(=O)[C@@H](C)O/N=C/c1cc(-n2c(=O)n(C)c(=S)n(C)c2=O)c(F)cc1Cl [6(R)]	5 (Level 5: growth control rate is above 85%)	5 (Level 5: growth control rate is above 85%)	5 (Level 5: growth control rate is above 85%)	5 (Level 5: growth control rate is above 85%)	5 (Level 5: growth control rate is above 85%)	5 (Level 5: growth control rate is above 85%)	
COC(=O)[C@@H](C)O/N=C/c1cc(-n2c(=O)n(C)c(=S)n(C)c2=O)c(F)cc1C(F)(F)F [85(R)]	5 (Level 5: growth control rate is above 85%)	4 (Level 4: growth control rate is greater than or equal to 60% and less than 85%)	5 (Level 5: growth control rate is above 85%)	5 (Level 5: growth control rate is above 85%)	5 (Level 5: growth control rate is above 85%)	5 (Level 5: growth control rate is above 85%)	
COC(=O)[C@@H](C)O/N=C/c1cc(-n2c(=S)cc(C(F)(F)F)n(C)c2=O)c(F)cc1Br [388(R)]							Weeding effect in post-emergence stage, Eleusine indica (level) ([1]; Dose 15 g/ha): 5 (Level 5: growth control rate is above 85%); Weeding effect in post-emergence stage, Alopecurus japonicus (level) ([2]; Dose 15 g/ha): 5 (Level 5: growth control rate is above 85%); Weeding effect in post-emergence stage, Setaria viridis (level) ([3]; Dose 15 g/ha): 5 (Level 5: growth control rate is above 85%); Weeding effect in post-emergence stage, Abutilon theophrasti (level) ([4]; Dose 15 g/ha): 5 (Level 5: growth control rate is above 85%); Weeding effect in post-emergence stage, Digitaria sanguinalis (level) ([5]; Dose 15 g/ha): 5 (Level 5: growth control rate is above 85%); Weeding effect in post-emergence stage, Echinochloa crusgalli (level) ([6]; Dose 15 g/ha): 5 (Level 5: growth control rate is above 85%)
COC(=O)C(C)(C)O/N=C/c1cc(-n2c(=O)n(C)c(=S)n(C)c2=O)c(F)cc1Cl [Compound 189]	5 (Level 5: growth control rate is above 85%)	4 (Level 4: growth control rate is greater than or equal to 60% and less than 85%)	5 (Level 5: growth control rate is above 85%)	5 (Level 5: growth control rate is above 85%)	4 (Level 4: growth control rate is greater than or equal to 60% and less than 85%)	4 (Level 4: growth control rate is greater than or equal to 60% and less than 85%)	
COCC(O/N=C/c1cc(-n2c(=O)cc(C(F)(F)F)n(C)c2=O)c(F)cc1Cl)C(=O)OC (stereo not drawn) [Compound 333]	5 (Level 5: growth control rate is above 85%)	5 (Level 5: growth control rate is above 85%)	5 (Level 5: growth control rate is above 85%)	5 (Level 5: growth control rate is above 85%)	5 (Level 5: growth control rate is above 85%)	5 (Level 5: growth control rate is above 85%)	
CO/N=C/c1cc(-n2c(=O)n(C)c(=S)n(C)c2=O)c(F)cc1Cl [Control compound A, reference compound]							Weeding effect in post-emergence stage, Eleusine indica (level) ([1]; Dose 15 g/ha): 1 (Level 1: growth control rate is greater than or equal to 5% and less than 20%); Weeding effect in post-emergence stage, Alopecurus japonicus (level) ([2]; Dose 15 g/ha): 0 (Level 0: growth control rate is less than 5%); Weeding effect in post-emergence stage, Setaria viridis (level) ([3]; Dose 15 g/ha): 1 (Level 1: growth control rate is greater than or equal to 5% and less than 20%); Weeding effect in post-emergence stage, Abutilon theophrasti (level) ([4]; Dose 15 g/ha): 3 (Level 3: growth control rate is greater than or equal to 40% and less than 60%); Weeding effect in post-emergence stage, Digitaria sanguinalis (level) ([5]; Dose 15 g/ha): 1 (Level 1: growth control rate is greater than or equal to 5% and less than 20%); Weeding effect in post-emergence stage, Echinochloa crusgalli (level) ([6]; Dose 15 g/ha): 0 (Level 0: growth control rate is less than 5%)
COC(=O)[C@@H](C)O/N=C/c1cc(-n2c(=O)cc(C(F)(F)F)n(C)c2=S)c(F)cc1Br [394(R)]							Weeding effect in post-emergence stage, Eleusine indica (level) ([1]; Dose 60 g/ha): 5 (Level 5: growth control rate is above 85%); Weeding effect in post-emergence stage, Alopecurus japonicus (level) ([2]; Dose 60 g/ha): 5 (Level 5: growth control rate is above 85%); Weeding effect in post-emergence stage, Setaria viridis (level) ([3]; Dose 60 g/ha): 5 (Level 5: growth control rate is above 85%); Weeding effect in post-emergence stage, Abutilon theophrasti (level) ([4]; Dose 60 g/ha): 5 (Level 5: growth control rate is above 85%); Weeding effect in post-emergence stage, Digitaria sanguinalis (level) ([5]; Dose 60 g/ha): 5 (Level 5: growth control rate is above 85%); Weeding effect in post-emergence stage, Echinochloa crusgalli (level) ([6]; Dose 60 g/ha): 5 (Level 5: growth control rate is above 85%)
CC(O/N=C/c1cc(-n2c(=O)cc(C(F)(F)F)n(C)c2=O)c(F)cc1Cl)C(=O)OCc1ccccc1 (stereo not drawn) [Compound 283]	5 (Level 5: growth control rate is above 85%)	5 (Level 5: growth control rate is above 85%)	5 (Level 5: growth control rate is above 85%)	5 (Level 5: growth control rate is above 85%)	5 (Level 5: growth control rate is above 85%)	5 (Level 5: growth control rate is above 85%)	
COC(=O)C(C)NN=Cc1cc(-n2c(=O)n(C)c(=S)n(C)c2=O)c(F)cc1Cl (stereo not drawn) [Compound 881]							Weeding effect in post-emergence stage, Eleusine indica (level) ([1]; Dose 30 g/ha): 5 (Level 5: growth control rate is above 85%); Weeding effect in post-emergence stage, Alopecurus japonicus (level) ([2]; Dose 30 g/ha): 5 (Level 5: growth control rate is above 85%); Weeding effect in post-emergence stage, Setaria viridis (level) ([3]; Dose 30 g/ha): 5 (Level 5: growth control rate is above 85%); Weeding effect in post-emergence stage, Abutilon theophrasti (level) ([4]; Dose 30 g/ha): 5 (Level 5: growth control rate is above 85%); Weeding effect in post-emergence stage, Digitaria sanguinalis (level) ([5]; Dose 30 g/ha): 5 (Level 5: growth control rate is above 85%); Weeding effect in post-emergence stage, Echinochloa crusgalli (level) ([6]; Dose 30 g/ha): 5 (Level 5: growth control rate is above 85%)
CCCCCCOC(=O)[C@@H](C)O/N=C/c1cc(-n2c(=O)cc(C(F)(F)F)n(C)c2=O)c(F)cc1Cl [204(R)]	5 (Level 5: growth control rate is above 85%)	5 (Level 5: growth control rate is above 85%)	5 (Level 5: growth control rate is above 85%)	5 (Level 5: growth control rate is above 85%)	5 (Level 5: growth control rate is above 85%)	5 (Level 5: growth control rate is above 85%)	
C/C(=N\OC(=O)[C@@H](C)O/N=C/c1cc(-n2c(=O)cc(C(F)(F)F)n(C)c2=O)c(F)cc1Cl)C(C)C [250(R)]	5 (Level 5: growth control rate is above 85%)	5 (Level 5: growth control rate is above 85%)	5 (Level 5: growth control rate is above 85%)	5 (Level 5: growth control rate is above 85%)	5 (Level 5: growth control rate is above 85%)	5 (Level 5: growth control rate is above 85%)	
